The source made the active and inactive calls. The calls are words filed in the database; no cut-off is given here.
Legend:
Matrix protein 2 = Matrix protein 2 (Influenza A virus, UniProt P06821); format: cell-based, Influenza A virus (A/udorn/1972(H3N2)), Oocyte
[1] = target: Matrix protein 2 (Influenza A virus) (UniProt P06821); format: cell-based; details: Influenza A virus (A/udorn/1972(H3N2)); Oocyte; 100 uM
MDCK = test: Cytotoxicity against MDCK cells after 72 hrs by MTS assay; format: cell-based, Canis lupus familiaris; details: dog
Influenza A virus [2] = test: Antiviral activity against Influenza A virus (A/Udorn/72) expressing wild-type matrix protein 2 infected in MDCK cells assessed as inhibition of plaque formation at 5 uM measured after 2 days; format: functional, organism-based; details: Influenza A virus (A/udorn/1972(H3N2))
Influenza A virus [3] = test: Inhibition of Influenza A virus matrix protein 2; details: concentration not given here
[4] = Binding affinity to Influenza A virus (A/Udorn/72) transmembrane domain of matrix protein 2 (22 to 46) at pH 7.4 by circular dichroism analysis; parameters: species or system Influenza A virus (A/udorn/1972(H3N2))

Chain of Matrix protein 2 (P06821 whole entry): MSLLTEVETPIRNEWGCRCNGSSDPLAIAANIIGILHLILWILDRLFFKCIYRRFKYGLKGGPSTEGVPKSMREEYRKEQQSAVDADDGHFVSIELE
Chain of Matrix protein 2 (Influenza A virus) (P06821 whole entry): as above

SMILES	IC50 (Matrix protein 2)	inhibition [1]	CC50 (MDCK)	Activity (Influenza A virus [2])	inhibition (Influenza A virus [3])	Kd [4]
NCC12CC3CC(CC1C3)C2	7.1 µM	97.1%	357 µM	Active	–	–
NC(N)=NCC12CC3CC(CC1C3)C2	2.4 µM	–	10.5 µM	–	–	–
C1CC2C3C4C5CCC4C24CNCC54C13	–	39.7%	–	–	–	–
NC12CC3CC(CC(C3)C1)C2 [AMANTADINE]	–	91%	–	Active	85%	–
NC12C3CCC4C3C3C(CCC31)C42	–	4.8%	> 500 µM	–	–	–
CC12CC3CC1(C)CC3(CN)C2	7.2 µM	97.3%	79 µM	Active	–	–
CNCC12C3CCC4C3C3C(CCC31)C42	–	14.7%	224 µM	–	–	–
C1C2C1C1C3C4C5C6CC6C4C14CNCC54C23 (stereo unspecified)	–	86.5%	61 µM	Active	–	232 µM
NCC12C3CCC4C3C3C(CCC31)C42	–	12.8%	12 µM	–	–	–
CNC12CC3CC(CC(C3)O1)C2	22.9 µM	91.7%	> 500 µM	–	–	–
CCN(CC)C12C3CCC4C3C3C(CCC31)C42	–	0%	119 µM	–	–	–
C1=CC2C3C4C5C=CC4C24CNCC54C13	33.5 µM	–	> 500 µM	–	–	74.9 µM
CNCC12CC3CC(CC1C3)C2	17.1 µM	92.2%	< 19.4 µM	Active	–	–
CC(N)C12CC3CC(CC1C3)C2 (racemic)	12.7 µM	93.2%	256 µM	Active	–	–
NC12CC3CC(CC(C3)O1)C2	29.2 µM	88.2%	> 500 µM	–	–	91.6 µM
CC(=N)NC12C3CCC4C3C3C(CCC31)C42	–	9.3%	> 500 µM	–	–	–
CC12CC3CC1(C)CC3(N)C2	–	93.6%	> 500 µM	Active	–	–
N=C(N)NCC12CC3CC(CC1C3)C2	–	97.2%	–	Active	–	–

Reference: ChEMBL document CHEMBL1773003
